This series in a line: passive permeability, PAMPA, ADME assay (AID 1508612). The conditions noted are these: pH 7.4, 30.0 min, 50.0 µM. A general note: In PAMPA a lipid-coated filter parts donor from acceptor wells.

Each structure is given as a SMILES string. Some results are limits rather than exact numbers.

Broadly, the Papp is a coefficient for how fast a substance crosses the barrier. The low end stands for slow passage, the high end for fast passage.

In the case of `NC(=O)C1CCN(c2ncnc(-c3ccc4c(c3)OCCCO4)n2)CC1`, the Papp worked out at 254 ×10⁻⁶ cm/s.
Regarding `N#Cc1ccc(C(=O)Nc2ccc(Cl)c(-c3nc4cc(Cl)ccc4o3)c2)c(F)c1`, the Papp was under 1 ×10⁻⁶ cm/s.
The result for `CCOC(=O)c1ccc(NC(=O)c2sc3nc4c(cc3c2N)N2CCC4CC2)cc1` reads 928 ×10⁻⁶ cm/s.
In the case of `CNC(=O)c1ccc(-c2cnc3cnc(C(=O)N(C)c4ccc(Cl)cc4)cn23)cc1`, the Papp was determined as 120 ×10⁻⁶ cm/s.
In turn, `O=[N+]([O-])c1ccc(CNc2ccc([S+](=O)([O-])Nc3nccs3)cc2)c(O)c1` had a Papp of 1.2 ×10⁻⁶ cm/s.
The compound `CC(C)c1cc(C(=O)N2CC[C@@H](NC(=O)C3CC3)C2)n[nH]1` returned a Papp of 1.3 ×10⁻⁶ cm/s.
In turn, `CCN(CC)C(=O)N1c2ccccc2C=Cc2ccccc21` yielded a Papp of over 1000 ×10⁻⁶ cm/s.
The compound `Cc1ccc(S(=O)(=O)Nc2cnccc2C(=O)Nc2nc(-c3ccc(Oc4ccccc4)cc3)cs2)cc1` displayed a Papp of 44.4 ×10⁻⁶ cm/s.
`CC(C)Nc1oc(-c2cccc3ccccc23)nc1C#N` returned a Papp of over 1000 ×10⁻⁶ cm/s.
Compound `Cc1ccccc1S(=O)(=O)N1CCCC(CCC(=O)NCCN(C)C2CCCCC2)C1` (stereo not drawn) yielded a Papp of over 1000 ×10⁻⁶ cm/s.
The compound `O=C(Nc1nc(-c2ccccc2)cs1)c1ccncc1NS(=O)(=O)c1ccccc1Cl` showed an apparent permeability coefficient (Papp) of over 1000 ×10⁻⁶ cm/s.
The result for `O=C1CCCC2=C1C(c1[nH]ncc1Cl)N=C(Nc1nc3ccc(Cl)cc3o1)N2` (stereo not drawn) reads 651 ×10⁻⁶ cm/s.
The compound `NC(=O)C1CCN(c2nc(-c3ccccc3)cs2)CC1` displayed a Papp of 598 ×10⁻⁶ cm/s. The Papp values of the last two compounds are within 1.5-fold of each other.
For the compound `COc1cc(/C=C(\C#N)C(=O)c2ccc(O)c(O)c2)cc(I)c1O`, the Papp was under 1 ×10⁻⁶ cm/s.
`Ic1ccccc1CNC1C2CCN(CC2)C1C(c1ccccc1)c1ccccc1` (stereo not drawn) came in with a Papp of over 1000 ×10⁻⁶ cm/s.
Take `Cc1cccc(-c2csc(N3CCC(C(N)=O)CC3)n2)c1`: the Papp came to 475 ×10⁻⁶ cm/s.
`Cc1nn(CC(=O)NCCCN2CCC(N3CCCCC3)CC2)c(=O)c2cc(-c3ccccc3)nn12` returned a Papp of 15.4 ×10⁻⁶ cm/s.
In the case of `CC1CCN(C(=O)c2ccc(-c3ccc(N4CCSCC4)nc3)cc2)CC1`, the Papp is over 1000 ×10⁻⁶ cm/s.
With `Cc1nsc(N)c1C(=O)N(C)CCOc1ccccc1Cl`, the Papp is 389 ×10⁻⁶ cm/s.
The result for `O=C1Nc2ccccc2/C1=C/c1ccnc2ccccc12` reads over 1000 ×10⁻⁶ cm/s; that for `c1ccc(Nc2cc(-c3ccoc3)ncn2)cc1`, over 1000 ×10⁻⁶ cm/s.
The compound `Cc1cccc(C)c1C(=O)Nc1cccc([S+](=O)([O-])N(C)C)c1` had a Papp of 355 ×10⁻⁶ cm/s.
`O=C(CNC(=O)c1cnccn1)NC1CCCc2c1[nH]c1ccc(Cl)cc21` (stereo not drawn) had a Papp of over 1000 ×10⁻⁶ cm/s.
`O=C(Nc1ccc(-c2ccccc2)cc1)[C@H](Cc1ccc(O[S+](=O)([O-])c2cccc3cnccc23)cc1)N[S+](=O)([O-])c1cccc2cnccc12` had an apparent permeability coefficient (Papp) of 18.5 ×10⁻⁶ cm/s.
`Cc1ccc(S(=O)(=O)Nc2cnccc2C(=O)NCc2ccccc2)cc1` showed a Papp of 27.7 ×10⁻⁶ cm/s. This Papp and that of the compound before are within 1.5-fold of each other.
Compound `CCC(CC)c1cc([C@H]2CN3CC[C@H]2C[C@@H]3CNC(=O)COc2ccccc2)nc(-c2ccncc2)n1` displayed a Papp of 790 ×10⁻⁶ cm/s. This Papp lies about 29-fold higher than the previous one.
With `CC(=O)c1c(C)[nH]c(C(=O)Nc2cccc(S(=O)(=O)N3CCCCCC3)c2)c1C` the figure was over 1000 ×10⁻⁶ cm/s.
`Cc1ccc2oc(NC3=NC(c4[nH]ncc4Cl)C4=C(CCCC4=O)N3)nc2c1` (stereo not drawn): the Papp was determined as 1000 ×10⁻⁶ cm/s.
For the compound `CCOc1ccc(C(C)CNC(=O)c2cc3sccc3n2Cc2ccccc2)cc1OCC` (stereo not drawn), the Papp was over 1000 ×10⁻⁶ cm/s.
As for `NC(=O)N1CCN(c2nc(-c3ccc(Br)cc3)cs2)CC1`, the Papp came to 958 ×10⁻⁶ cm/s.
Regarding `CCCCCCCc1c(C)nc(N2CCOCC2)[nH]c1=O`, the Papp was over 1000 ×10⁻⁶ cm/s.
In turn, `CCn1c(SCc2ccc(C#N)cc2)nnc1-c1cccc(Cl)c1` had a Papp of 924 ×10⁻⁶ cm/s.
Compound `O=C(NC[C@H]1Cn2c(-c3ccc(Cl)cc3)cnc2CO1)C1CCCC1` showed a Papp of 108 ×10⁻⁶ cm/s.
In turn, `CCOc1ccc(CCNC(=O)c2ccc3ccccc3n2)cc1OCC` gave a Papp of over 1000 ×10⁻⁶ cm/s.
Compound `COc1ccc(-c2ccc3c(N4CCOC[C@H]4C)nc(N4CCOC[C@H]4C)nc3n2)cc1CO` showed a Papp of 182 ×10⁻⁶ cm/s.
`COc1cc(-c2nc(Nc3ccc(F)c(F)c3)c3ccccc3n2)ccn1` yielded a Papp of 22.5 ×10⁻⁶ cm/s.
In turn, `CC1=C(C(=O)NC2CCCCC2)C(c2ccccc2Br)N=C(Nc2nc3ccccc3o2)N1` (stereo not drawn) displayed a Papp of 734 ×10⁻⁶ cm/s. Against the preceding compound, the Papp is about 33-fold higher.
For `COc1ccc(NC(=O)c2cccnc2)cc1S(=O)(=O)Nc1ccc(Br)cc1`, the Papp was found to be 514 ×10⁻⁶ cm/s.
With `O=[S+]([O-])(Nc1ccc(C2CCNCC2)cc1)c1ccc(NCc2ccc(Cl)cc2O)cc1` the figure was 2.21 ×10⁻⁶ cm/s; with `Cc1ccc(-c2ccnc(N3CCC(C(N)=O)CC3)n2)cc1`, 577 ×10⁻⁶ cm/s; with `Cc1ccc(-n2c(C)cc(-c3nnc4n3CCCCC4)c2C)cc1`, over 1000 ×10⁻⁶ cm/s.
The compound `COc1ccc(-n2nc(C3CCCN(C(=O)c4ccc(C)cc4)C3)[nH]c2=O)cc1` (stereo not drawn) showed a Papp of 685 ×10⁻⁶ cm/s.
In turn, `CN(C)c1cccc(-c2nc(N3CCC(C(N)=O)CC3)ncc2F)c1` yielded a Papp of 780 ×10⁻⁶ cm/s. The Papp values of the last two compounds are within 1.5-fold of each other.
In the case of `CC(C)c1ccccc1-c1ncc(F)c(NC(C)(C)c2ccc(-n3ccnn3)cc2)n1`, the Papp is 672 ×10⁻⁶ cm/s.
On to `CC(=O)NCc1ccc(-c2csc(Nc3cccc(C)c3)n2)o1`, for which the apparent permeability coefficient (Papp) is over 1000 ×10⁻⁶ cm/s.
As for `O=C(NCc1ccco1)c1nc2nc(-c3cccs3)cc(C(F)(F)F)n2n1`, the Papp is 257 ×10⁻⁶ cm/s.
`CC1=NN(c2ccc(C(=O)O)cc2)C(=O)/C1=C/c1ccc(-c2cc(C)c(C)cc2[N+](=O)[O-])o1` had an apparent permeability (Papp) of 238 ×10⁻⁶ cm/s.
In turn, `CCOC(=O)c1c(C)c(-c2ccccc2)n(CC(=O)NCc2ccccc2)c1C` gave a Papp of over 1000 ×10⁻⁶ cm/s.
The result for `COc1cc(-c2ccnc3c2c(C)nn3-c2cccc(C(F)(F)F)c2)ccc1O` reads 93.1 ×10⁻⁶ cm/s; that for `CN(C)CCCN1c2ccc(O)cc2Sc2ccc(Cl)cc21`, over 1000 ×10⁻⁶ cm/s; that for `Cc1ccc(S(=O)(=O)Nc2cnccc2C(=O)Nc2nc(-c3ccc(F)cc3)cs2)cc1`, 423 ×10⁻⁶ cm/s.
The compound `NCC(=O)Nc1cncc(-c2nn3c(=O)cc(N4CCNCC4)nc3s2)c1` yielded a Papp of under 1 ×10⁻⁶ cm/s.
The compound `Cc1ccc(-c2cc(C(=O)Nc3ccc(-c4noc(=O)[nH]4)cc3)c3ccccc3n2)cc1C` returned a Papp of 3 ×10⁻⁶ cm/s.
The compound `NC(=O)C1CCN(c2nc(-c3ccc4c(c3)OCCO4)cs2)CC1` displayed a Papp of 669 ×10⁻⁶ cm/s. Compared with the last compound, the Papp is about 220-fold higher.
`Cc1cnc(-c2ccccc2C(C)C)nc1NCC1CCN(C2COC2)CC1` yielded a Papp of over 1000 ×10⁻⁶ cm/s.
In turn, `COc1ccnc(NC(=S)N2CCN(c3ncc(C(F)(F)F)cc3Cl)CC2)c1` showed a Papp of over 1000 ×10⁻⁶ cm/s.
`COc1cc(NC(=O)c2nc3ccccc3n(C)c2=O)cc(OC)c1OC` showed an apparent permeability coefficient (Papp) of 145 ×10⁻⁶ cm/s.
For `O=c1c(O)c(-c2ccc(O)cc2)oc2cc(O)cc(O)c12`, the Papp was found to be 46.6 ×10⁻⁶ cm/s.
Regarding `CCOc1ccccc1C(=O)Nc1ccncc1C(=O)Nc1cccc(S(=O)(=O)C(F)(F)F)c1`, the Papp was determined as 99.5 ×10⁻⁶ cm/s.
Compound `COc1ccc(-c2csc(N3CCC(C(N)=O)CC3)n2)cc1` registered a Papp of 646 ×10⁻⁶ cm/s.
With `O=[S+]([O-])(Nc1nccs1)c1ccc(NCc2cc(Cl)cc(Br)c2O)cc1` the figure was 265 ×10⁻⁶ cm/s; with `Cc1cc(-c2nnc3n2CCCCC3)c(C)n1-c1ccc(C(F)(F)F)cc1`, over 1000 ×10⁻⁶ cm/s; with `Cc1ccnc(NC(=O)C2CC(=O)N(c3n[nH]c4cc(Br)ccc34)C2)c1` (stereo not drawn), 563 ×10⁻⁶ cm/s.
In the case of `COc1cccc(CN2CCCC(c3nc(-c4ccncc4)ncc3-c3ccccc3)C2)c1O` (stereo not drawn), the Papp is over 1000 ×10⁻⁶ cm/s.
Regarding `COc1cc(O)c([C@H](CC(=O)N2CC(C)CC(C)C2)c2ccc3c(c2)OCO3)c(OC)c1` (stereo partly drawn), the apparent permeability coefficient (Papp) is over 1000 ×10⁻⁶ cm/s.
As for `Fc1ccc(Nc2nc(C3=CCNCC3)nc3ccccc23)cc1F`, the Papp was over 1000 ×10⁻⁶ cm/s.
With `CCCOC(c1cc2nccc(C(=O)O)c2[nH]1)c1ccccc1Cl` (stereo not drawn) the figure was 12.9 ×10⁻⁶ cm/s; with `CC(C)(C)c1ccc(S(=O)(=O)c2cnc(SCC(=O)Nc3ccc(F)c(Cl)c3)[nH]c2=O)cc1`, 6.49 ×10⁻⁶ cm/s.
As to `Cc1ccc2oc(NC3=NC4(CCCC4)C4=C(CCCC4=O)N3)nc2c1`, the apparent permeability coefficient (Papp) came out at 543 ×10⁻⁶ cm/s.
For `CNc1nc2c(s1)C(c1ccccc1F)CC(=O)N2` (stereo not drawn), the Papp is 52 ×10⁻⁶ cm/s. This Papp is about 10-fold lower than that of the compound before.
With `Cc1nc2c(-c3ccccc3)cnn2c(N)c1-c1ccccc1` the figure was 207 ×10⁻⁶ cm/s; with `Cc1ccc(OCCn2c(CCNC(=O)c3ccccc3Br)nc3ccccc32)cc1`, 993 ×10⁻⁶ cm/s; with `Cc1cc(C)nc(NC(=S)N2CCN(c3cc(C(F)(F)F)nc4ccc(C(F)(F)F)cc34)CC2)c1`, 636 ×10⁻⁶ cm/s.
The result for `COc1ccc(-n2nc(C3CCCN(C(=O)Cc4ccccn4)C3)[nH]c2=O)cc1` (stereo not drawn) reads 106 ×10⁻⁶ cm/s; that for `O=C(NC1CCCc2c1[nH]c1ccccc21)c1ccccc1` (stereo not drawn), 135 ×10⁻⁶ cm/s; that for `CCOC(=O)Nc1cc(-c2ccc(C)c(NS(C)(=O)=O)c2)nn2c(C)nnc12`, 278 ×10⁻⁶ cm/s.
The compound `COc1ccc(C(=O)Nc2nc(-c3ccccc3)cs2)cc1NS(=O)(=O)c1ccc(C)cc1` registered a Papp of 14.9 ×10⁻⁶ cm/s.
In turn, `CS(=O)(=O)c1cccc(-c2csc(N3CCC(C(N)=O)CC3)n2)c1` gave a Papp of 49.1 ×10⁻⁶ cm/s.
Consider `CCn1c(C)c(C(C)=O)c(C)c1C(=O)Nc1cccc([S+](=O)([O-])N(C)C)c1`, for which the Papp came out at 405 ×10⁻⁶ cm/s.
`Cc1ccc(-n2ncc3c(NCCCn4ccnc4)ncnc32)cc1Cl` showed a Papp of over 1000 ×10⁻⁶ cm/s.
Compound `Cc1ccc(NC(=O)Nc2cc3c(cc2N2CCCCC2)n(C)c(=O)n3C)cc1Cl` registered a Papp of 8 ×10⁻⁶ cm/s.
Compound `C=C[C@@]1(C)C[C@H](OC(=O)CSC(C)(C)CNC(=O)[C@@H](N)C(C)C)[C@@]2(C)C(C)CC[C@@]3(CCC(=O)[C@@H]32)[C@H](C)[C@H]1O` (stereo partly drawn) gave a Papp of over 1000 ×10⁻⁶ cm/s.
With `COc1cc2nc(N3CCCC3)nc(NCCCCCN3CCCC3)c2cc1OC` the figure was 2.4 ×10⁻⁶ cm/s; with `Cn1c(CN2CCCC2)nc2cc(NC(=O)COc3ccc(Cl)cc3)ccc21`, over 1000 ×10⁻⁶ cm/s.
Regarding `Cc1cc(Br)ccc1NC(=O)C(NS(=O)(=O)c1cccs1)c1ccccc1` (stereo not drawn), the Papp is under 1 ×10⁻⁶ cm/s.
`COc1cccc(CNc2ccc(S(=O)(=O)Nc3nccs3)cc2)c1`: the Papp came to 342 ×10⁻⁶ cm/s.
As for `COc1cccc(O)c1CNc1ccc(S(=O)(=O)Nc2nccs2)cc1`, the Papp stood at 5.16 ×10⁻⁶ cm/s.
Regarding `CCCCNc1oc(-c2cccc3ccccc23)nc1C#N`, the Papp was determined as 38 ×10⁻⁶ cm/s. This Papp lies about 7.4-fold higher than the previous one.
Regarding `Cc1ccnc(NC(=S)N2CCC(c3cccc(C(F)(F)F)c3)CC2)c1`, the Papp was 672 ×10⁻⁶ cm/s.
`NC(=O)C1CCN(c2nc(-c3cccc(Cl)c3)cs2)CC1`: the apparent permeability coefficient (Papp) was over 1000 ×10⁻⁶ cm/s.
As for `COCCNc1ncc(-c2cccc(O)c2)c2c1OCC2`, the Papp was 412 ×10⁻⁶ cm/s.
The compound `COc1cccc(-c2nc(-c3c(C)noc3C)cc3[nH]c(C)cc23)c1OC` had a Papp of over 1000 ×10⁻⁶ cm/s.
In turn, `CCC(CC)C(=O)NC[C@@H]1C=C(C)[C@H](Cc2nc3c(C)cccc3[nH]2)C[C@H]1C(C)C` came in with a Papp of over 1000 ×10⁻⁶ cm/s.

Source of the values: PubChem BioAssay AID1508612.
